Test systems include A498 renal; IGROV1 ovarian; A549 NSCLC; EKVX NSCLC; KM12 colon; HOP-62 NSCLC; SW-620 colon; HL-60(TB) leukemia; SF-295 CNS; MDA-MB-435.
Common to all, as to test: inhibition of tumour cell growth, NCI panel, 48 h

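Dose response: 5 concentrations. Exposure: 48 h. Format: 96-well plates. Endpoint: linear interpolation; highest concentration if not reached. GI50 is the concentration that inhibits growth by half. TGI denotes the concentration required for complete inhibition of growth.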

For `CC1=CC2CC(C)C1(C)CCc1ccoc12` (centres undefined), the TGI in the assay on A498 renal, with IGROV1 ovarian, in the assay with A549 NSCLC, with EKVX NSCLC, in the assay with KM12 colon and with HOP-62 NSCLC was > 100 µM each time. Also, the TGI in the assay on SW-620 colon, in the assay on HL-60(TB) leukemia and with SF-295 CNS was > 100 µM in each case.
In the case of `Cc1cc2c(cc1Br)C1(C)CCC(C)C1(C)O2` (centres undefined), the TGI in the assay on A498 renal, with IGROV1 ovarian, in the assay on A549 NSCLC, with EKVX NSCLC, in the assay with KM12 colon and in the assay on HOP-62 NSCLC was > 100 µM each time. Moreover, the TGI was > 100 µM with SW-620 colon, 34.1 µM in the assay with HL-60(TB) leukemia and 54.6 µM in the assay on SF-295 CNS.
On to `COc1cc2c(c(OC)c1OC)-c1ccc(SC)c(=O)cc1C(CC(=O)Oc1cccc(C#N)c1)C2` (centres undefined), for which the TGI with A498 renal was 0.522 µM; with IGROV1 ovarian, > 100 µM; in the assay with A549 NSCLC, > 100 µM; in the assay with EKVX NSCLC, > 100 µM; in the assay with KM12 colon, 4.83 µM; with HOP-62 NSCLC, > 100 µM. The TGI in the assay on SW-620 colon was > 100 µM; in the assay with HL-60(TB) leukemia, 2.35 µM; with SF-295 CNS it was > 100 µM.
Turning to `O=C1CC/C(=C\COc2ccc3ccc(=O)oc3c2)O1`, the GI50 in the assay on A498 renal was 16.8 µM; with MDA-MB-435, 3.41 µM; in the assay with IGROV1 ovarian, 4.2 µM; with A549 NSCLC, 24.1 µM; with EKVX NSCLC, 16.7 µM; in the assay with KM12 colon, 10.1 µM. In addition, the results for the GI50 in the assay with HOP-62 NSCLC, with SW-620 colon and in the assay on SF-295 CNS were 17.6 µM, 2.35 µM and 43.5 µM, respectively. For the same molecule, the TGI in the assay with A498 renal is 44 µM; with MDA-MB-435, 17.5 µM; in the assay with IGROV1 ovarian, 17.8 µM; in the assay with A549 NSCLC it was > 100 µM; in the assay with EKVX NSCLC, 46.4 µM; with KM12 colon it was 45.2 µM. Moreover, the TGI with HOP-62 NSCLC was 38.2 µM; in the assay on SW-620 colon it was 14.9 µM; with SF-295 CNS, > 100 µM.
On to `CC(=O)O[C@H]1CC[C@@]2(C)C(=CC[C@@H]3C2CC[C@]2(C)Nc4[nH]ncc4CC32)C1` (some centres undefined), for which the TGI in the assay with A498 renal is > 100 µM; in the assay with IGROV1 ovarian, > 100 µM; in the assay on A549 NSCLC it was > 100 µM; in the assay on EKVX NSCLC, > 100 µM; with KM12 colon, 31.1 µM; in the assay with HOP-62 NSCLC, > 100 µM. Besides, the TGI in the assay on SW-620 colon was > 100 µM; in the assay with HL-60(TB) leukemia it was 53.5 µM; with SF-295 CNS it was > 100 µM.
`CN1CCC(n2[nH]c(-c3ccccc3)c(Cc3ccccc3)c2=O)CC1`: the TGI with A498 renal, with MDA-MB-435, in the assay on IGROV1 ovarian, with A549 NSCLC, with EKVX NSCLC and with KM12 colon was > 100 µM each time. For the same molecule, the TGI in the assay on HOP-62 NSCLC, with SW-620 colon and with SF-295 CNS was > 100 µM each time.
As to `CN(CCN(C)C(=O)CCOS(C)(=O)=O)C(=O)CCOS(C)(=O)=O`, the TGI in the assay with A498 renal, in the assay on IGROV1 ovarian, in the assay on A549 NSCLC, with EKVX NSCLC, in the assay on KM12 colon and in the assay on HOP-62 NSCLC was > 100 µM in each case. Moreover, the TGI in the assay with SW-620 colon, in the assay with HL-60(TB) leukemia and in the assay on SF-295 CNS was > 100 µM in each case.
As to `c1cncc(CNc2ncn[nH]2)c1`, the TGI in the assay with A498 renal, in the assay on MDA-MB-435, with IGROV1 ovarian, with A549 NSCLC, in the assay with EKVX NSCLC and in the assay with KM12 colon was > 100 µM in each case. For the same molecule, the TGI with HOP-62 NSCLC, in the assay on SW-620 colon and in the assay on SF-295 CNS was > 100 µM in each case.
As for `Cc1c(O)c(=O)ccn1CCO`, the TGI in the assay on A498 renal, in the assay with A549 NSCLC, in the assay on EKVX NSCLC, in the assay with KM12 colon, in the assay with HOP-62 NSCLC and in the assay on SW-620 colon was > 100 µM throughout. Also, the TGI in the assay on HL-60(TB) leukemia and with SF-295 CNS was > 100 µM in each case.
Consider `COc1ccc(C(O)/C(=C/n2ccnc2)c2ccccc2)cc1OC` (centres undefined), for which the TGI with A498 renal, in the assay on IGROV1 ovarian, in the assay on A549 NSCLC, in the assay with EKVX NSCLC, with KM12 colon and in the assay with HOP-62 NSCLC was > 100 µM in each case. Moreover, the TGI with SW-620 colon, in the assay on HL-60(TB) leukemia and in the assay with SF-295 CNS was > 100 µM throughout.
Consider `COC(=O)[C@]12CC=C3O[C@@H]4OC5(CCCCC5)O[C@@H]4[C@H]3C1C(=O)C=CC2=O` (some centres undefined), for which the TGI was 33.6 µM with A498 renal; 34.5 µM in the assay with IGROV1 ovarian; 55 µM in the assay with A549 NSCLC; 52.1 µM in the assay on EKVX NSCLC; 20.7 µM with KM12 colon; 37.9 µM in the assay with HOP-62 NSCLC. The TGI in the assay with SW-620 colon was 32.1 µM; in the assay with HL-60(TB) leukemia, 25.9 µM; with SF-295 CNS it was 42.2 µM.
As for `C=C1C(=O)O[C@H]2C[C@@H]1CCC1(C)OC1CC/C(C)=C/CC[C@H]2C` (some centres undefined), the GI50 was 17.7 µM in the assay on A498 renal; 18.9 µM with MDA-MB-435; 35 µM in the assay on IGROV1 ovarian; 19.7 µM with A549 NSCLC; 24.3 µM in the assay with EKVX NSCLC; 22.2 µM in the assay on KM12 colon. Besides, the GI50 was 18.9 µM in the assay with HOP-62 NSCLC, 19.2 µM in the assay on SW-620 colon and 12.3 µM with SF-295 CNS. The TGI in the assay on A498 renal worked out at 33.6 µM; with MDA-MB-435 it was 34.6 µM; in the assay with IGROV1 ovarian, 96.8 µM; in the assay on A549 NSCLC, 39 µM; in the assay with EKVX NSCLC, 44.3 µM; in the assay with KM12 colon, 43.1 µM. The figures for the TGI in the assay on HOP-62 NSCLC, in the assay on SW-620 colon and in the assay with SF-295 CNS were 34.5 µM, 36.9 µM and 26.3 µM, respectively.
For the molecule `Clc1cc(Cl)cc(Nc2nc3ccccc3nc2-c2cccs2)c1`, the TGI in the assay with A549 NSCLC was > 100 µM; with EKVX NSCLC, > 100 µM; with HOP-62 NSCLC, > 100 µM; in the assay with SW-620 colon, > 100 µM; with HL-60(TB) leukemia, > 100 µM; in the assay with SF-295 CNS it was 45.8 µM.
For `C=CCN(CC=C)CC(C(C)=O)C(c1ccccc1)c1c(O)c2ccccc2oc1=O` (centres undefined), the TGI in the assay on A498 renal is > 100 µM; with IGROV1 ovarian it was > 100 µM; with A549 NSCLC, > 100 µM; in the assay on EKVX NSCLC, > 100 µM; in the assay with KM12 colon it was 37.9 µM; in the assay with HOP-62 NSCLC it was > 100 µM. Besides, the TGI was > 100 µM with SW-620 colon, > 100 µM in the assay on HL-60(TB) leukemia and 95.8 µM in the assay with SF-295 CNS.
With `NC1=NC(c2ccc(F)cc2)C2=C(N1)c1ccc3ccccc3c1OCC2` (centres undefined), the GI50 with A498 renal was 10.8 µM; with IGROV1 ovarian, > 100 µM; in the assay on A549 NSCLC it was 18.7 µM; in the assay on EKVX NSCLC it was 5.95 µM; in the assay on KM12 colon it was 4.45 µM; in the assay on HOP-62 NSCLC, 23.5 µM. Also, the GI50 is > 100 µM with HL-60(TB) leukemia and 3.47 µM in the assay on SF-295 CNS. For the same molecule, the TGI was > 100 µM in the assay with A498 renal; > 100 µM with IGROV1 ovarian; > 100 µM in the assay with A549 NSCLC; 75.2 µM in the assay on EKVX NSCLC; > 100 µM in the assay on KM12 colon; > 100 µM in the assay on HOP-62 NSCLC. Also, the TGI is > 100 µM in the assay with HL-60(TB) leukemia and 48.4 µM in the assay with SF-295 CNS.
For the molecule `O=C(O)CCCNS(=O)(=O)c1ccc2ccccc2c1`, the TGI with A498 renal, in the assay on IGROV1 ovarian, in the assay on A549 NSCLC, in the assay on EKVX NSCLC, with KM12 colon and with SW-620 colon was > 100 µM in each case. Besides, the TGI in the assay with HL-60(TB) leukemia and with SF-295 CNS was > 100 µM in each case.
`COc1ccc2c(c1)CCCC1C3=NCCC3(C)CSC21` (centres undefined): the TGI in the assay with IGROV1 ovarian was > 100 µM; in the assay with A549 NSCLC, > 100 µM; with KM12 colon, > 100 µM; in the assay with SW-620 colon it was > 100 µM; in the assay on HL-60(TB) leukemia it was 44.7 µM; in the assay with SF-295 CNS, > 100 µM.
As for `CC[C@@]1(O)C(=O)OCc2c1cc1n(c2=O)Cc2cc3c(NC(=O)CN)cccc3nc2-1`, the TGI is 3.27 µM in the assay on A498 renal; 17.3 µM in the assay on MDA-MB-435; > 100 µM in the assay with IGROV1 ovarian; > 48.5 µM with A549 NSCLC; > 100 µM in the assay on EKVX NSCLC; 34.6 µM in the assay on KM12 colon. The TGI with HOP-62 NSCLC is 9.22 µM; in the assay on SW-620 colon, > 100 µM; in the assay with SF-295 CNS it was 20.4 µM.
Turning to `COc1ccc(/C=C\c2cc(OC)c(OC)c(OC)c2)cc1OCC(=O)Nc1nc2ccc(OC(F)(F)F)cc2s1`, the GI50 with A498 renal was 3.61 µM; in the assay on MDA-MB-435, 1.93 µM; with IGROV1 ovarian it was 5.64 µM; in the assay on A549 NSCLC it was 6 µM; in the assay with EKVX NSCLC, 7.89 µM; in the assay on KM12 colon, 4.48 µM. Further, the GI50 with HOP-62 NSCLC is 7.09 µM; in the assay with SW-620 colon, 5.65 µM; in the assay with SF-295 CNS it was 3.7 µM. In addition, the TGI in the assay on A498 renal was > 100 µM; in the assay on MDA-MB-435, 5.14 µM; in the assay with IGROV1 ovarian, > 100 µM; with A549 NSCLC it was > 100 µM; in the assay on EKVX NSCLC it was > 100 µM; with KM12 colon it was 51.5 µM. Also, the TGI in the assay on HOP-62 NSCLC, with SW-620 colon and in the assay on SF-295 CNS was > 100 µM each time.
Consider `CCOC(=O)C(=O)Nc1ccc(Cl)c(C(F)(F)F)c1`, for which the TGI with IGROV1 ovarian, in the assay on A549 NSCLC, with EKVX NSCLC, in the assay on HOP-62 NSCLC, with SW-620 colon and with HL-60(TB) leukemia was > 100 µM in each case. Also, in the assay on SF-295 CNS, the TGI was > 100 µM.
